Measured values published in US8623857B2, “N-phenyl imidazole carboxamide inhibitors of 3-phosphoinositide-dependent protein kinase-1” (Merck Sharp & Dohme Corp., priority 2010, dated 2014).

Target: T1, recombinant human PDK1 (Homo sapiens, UniProt O15530)
T1 construct: containing amino acids 51-556 of the human PDK1 enzyme; made in house; host or cells: Sf9 insect cells
T1 sequence (O15530 51-556): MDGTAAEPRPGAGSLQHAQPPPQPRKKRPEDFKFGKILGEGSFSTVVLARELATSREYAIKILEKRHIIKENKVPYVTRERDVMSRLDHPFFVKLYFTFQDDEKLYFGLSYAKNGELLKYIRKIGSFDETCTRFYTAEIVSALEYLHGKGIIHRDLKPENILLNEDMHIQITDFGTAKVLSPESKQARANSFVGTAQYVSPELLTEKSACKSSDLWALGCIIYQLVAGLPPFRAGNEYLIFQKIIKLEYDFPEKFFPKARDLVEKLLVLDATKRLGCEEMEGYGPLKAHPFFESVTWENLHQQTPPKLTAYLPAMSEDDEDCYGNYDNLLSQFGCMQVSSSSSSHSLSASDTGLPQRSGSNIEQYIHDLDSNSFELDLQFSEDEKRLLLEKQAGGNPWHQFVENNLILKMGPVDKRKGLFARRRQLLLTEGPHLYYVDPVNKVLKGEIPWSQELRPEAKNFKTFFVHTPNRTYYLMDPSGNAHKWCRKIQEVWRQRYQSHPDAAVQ
Test: PDK1 IMAP fluorescence polarization assay (inhibition of peptide substrate phosphorylation)
Type: biochemical

[1] = Table 6, 10 nM PDK1 enzyme, 100 nM peptide substrate, 100 nM PIFtide, 2.5 uM ATP, 1.5 hours

Row | SMILES | IC50 [1] | IC50 (Table 10, compounds 97-132)
1 | COc1ccc(CNc2cc(-c3c[nH]c(C(=O)Nc4cccc(F)c4N4CCC(CN)CC4)n3)nc(N)n2)cc1OC [Compound 76, 4-[2-amino-6-[[(3,4-dimethoxyphenyl)methyl]amino]-4-pyrimidinyl]-N-[2-[4-(aminomethyl)-1-piperidinyl]-3-fluorophenyl]-1H-imidazole-2-carboxamide] | 251 to 1000 nM | 
2 | NCC1CCN(c2c(F)cccc2NC(=O)c2nc(-c3cc(N[C@H](CO)c4ccccc4)nc(N)n3)c[nH]2)CC1 [Compound 77, 4-[2-amino-6-[(2-hydroxy-1(S)-phenylethyl)amino]-4-pyrimidinyl]-N-[2-[4-(aminomethyl)-1-piperidinyl]-3-fluorophenyl]-1H-imidazole-2-carboxamide] | 1 to 50 nM | 
3 | Cc1cc(-c2c[nH]c(C(=O)Nc3cccc(F)c3N3CCC(C(=O)N4CC5CCC(C4)O5)CC3)n2)ccn1 [Compound 78, N-[3-fluoro-2-[4-(8-oxa-3-azabicyclo[3.2.1]oct-3-ylcarbonyl)-1-piperidinyl]phenyl]-4-(2-methyl-4-pyridinyl)-1H-imidazole-2-carboxamide] | 251 to 1000 nM | 
4 | Cc1cc(-c2c[nH]c(C(=O)Nc3cccc(F)c3N3CCC(C(=O)N4CC5CC4CO5)CC3)n2)ccn1 (stereo not drawn) [Compound 79, N-[3-fluoro-2-[4-(2-oxa-5-azabicyclo[2.2.1]hept-5-ylcarbonyl)-1-piperidinyl]phenyl]-4-(2-methyl-4-pyridinyl)-1H-imidazole-2-carboxamide] | 1000 to 5000 nM | 
5 | Cc1cc(-c2c[nH]c(C(=O)Nc3cccc(F)c3N3CCC(C(=O)N4CCOCC4CO)CC3)n2)ccn1 (stereo not drawn) [Compound 80, N-[3-fluoro-2-[4-[[3-(hydroxymethyl)-4-morpholinyl]carbonyl]-1-piperidinyl]phenyl]-4-(2-methyl-4-pyridinyl)-1H-imidazole-2-carboxamide] | 251 to 1000 nM | 
6 | Cc1cc(-c2c[nH]c(C(=O)Nc3cccc(F)c3N3CCC(C(=O)N4CCOCC4CN)CC3)n2)ccn1 (stereo not drawn) [Compound 81, N-[2-[4-[[3-(aminomethyl)-4-morpholinyl]carbonyl]-1-piperidinyl]-3-fluorophenyl]-4-(2-methyl-4-pyridinyl)-1H-imidazole-2-carboxamide] | 51 to 250 nM | 
7 | Cc1cc(-c2c[nH]c(C(=O)Nc3cccc(F)c3N3CCC(C(N)=O)CC3)n2)ccn1 [Compound 82, 1-[2-fluoro-6-[[[4-(2-methyl-4-pyridinyl)-1H-imidazol-2-yl]carbonyl]amino]phenyl]-4-piperidinecarboxamide] | 1000 to 5000 nM | 
8 | Cc1cc(-c2c[nH]c(C(=O)Nc3cccc(F)c3N3CCC(C(=O)NCCN)CC3)n2)ccn1 [Compound 83, N-(2-aminoethyl)-1-[2-fluoro-6-[[[4-(2-methyl-4-pyridinyl)-1H-imidazol-2-yl]carbonyl]amino]phenyl]-4-piperidinecarboxamide] | 51 to 250 nM | 
9 | Cc1cc(-c2c[nH]c(C(=O)Nc3cccc(F)c3N3CCC(C(=O)NC4CCCCC4N)CC3)n2)ccn1 (stereo not drawn) [Compound 84, N-(2-aminocyclohexyl)-1-[2-fluoro-6-[[[4-(2-methyl-4-pyridinyl)-1H-imidazol-2-yl]carbonyl]amino]phenyl]-4-piperidinecarboxamide] | 51 to 250 nM | 
10 | CNCCCCNC(=O)C1CCN(c2c(F)cccc2NC(=O)c2nc(-c3ccnc(C)c3)c[nH]2)CC1 [Compound 85, 1-[2-fluoro-6-[[[4-(2-methyl-4-pyridinyl)-1H-imidazol-2-yl]carbonyl]amino]phenyl]-N-[4-(methylamino)butyl]-4-piperidinecarboxamide] | 251 to 1000 nM | 
11 | CCNCCNC(=O)C1CCN(c2c(F)cccc2NC(=O)c2nc(-c3ccnc(C)c3)c[nH]2)CC1 [Compound 86, N-[2-(ethylamino)ethyl]-1-[2-fluoro-6-[[[4-(2-methyl-4-pyridinyl)-1H-imidazol-2-yl]carbonyl]amino]phenyl]-4-piperidinecarboxamide] | 251 to 1000 nM | 
12 | Cc1cc(-c2c[nH]c(C(=O)Nc3cccc(F)c3N3CCC(C(=O)NCC4(N)CCCC4)CC3)n2)ccn1 [Compound 88, N-[(1-aminocyclopentyl)methyl]-1-[2-fluoro-6-[[[4-(2-methyl-4-pyridinyl)-1H-imidazol-2-yl]carbonyl]amino]phenyl]-4-piperidinecarboxamide] | 51 to 250 nM | 
13 | Cc1cc(-c2c[nH]c(C(=O)Nc3cccc(F)c3N3CCC(C(=O)N4CCOC(CN)C4)CC3)n2)ccn1 (stereo not drawn) [Compound 89, N-[2-[4-[[2-(aminomethyl)-4-morpholinyl]carbonyl]-1-piperidinyl]-3-fluorophenyl]-4-(2-methyl-4-pyridinyl)-1H-imidazole-2-carboxamide] | 51 to 250 nM | 
14 | Cc1cc(-c2c[nH]c(C(=O)Nc3cccc(F)c3N3CCC(C(=O)N4CCOC(CCO)C4)CC3)n2)ccn1 (stereo not drawn) [Compound 90, N-[3-fluoro-2-[4-[[2-(2-hydroxyethyl)-4-morpholinyl]carbonyl]-1-piperidinyl]phenyl]-4-(2-methyl-4-pyridinyl)-1H-imidazole-2-carboxamide] | 251 to 1000 nM | 
15 | Cc1cc(-c2c[nH]c(C(=O)Nc3cccc(F)c3N3CCC(C(=O)N4CC5CNC(C5)C4)CC3)n2)ccn1 (stereo not drawn) [Compound 91, N-[2-[4-(3,6-diazabicyclo[3.2.1]oct-3-ylcarbonyl)-1-piperidinyl]-3-fluorophenyl]-4-(2-methyl-4-pyridinyl)-1H-imidazole-2-carboxamide] | 51 to 250 nM | 
16 | Cc1cc(-c2c[nH]c(C(=O)Nc3cccc(F)c3N3CCC(C(=O)N4CC[C@@H](F)C4)CC3)n2)ccn1 [Compound 92, N-[3-fluoro-2-[4-[(3(R)-fluoro-1-pyrrolidinyl)carbonyl]-1-piperidinyl]phenyl]-4-(2-methyl-4-pyridinyl)-1H-imidazole-2-carboxamide] | 1000 to 5000 nM | 
17 | Cc1cc(-c2c[nH]c(C(=O)Nc3cccc(F)c3N3CCC(C(=O)N4CCC5(CC4)CNC(=O)C5)CC3)n2)ccn1 [Compound 93, N-[3-fluoro-2-[4-[(3-oxo-2,8-diazaspiro[4.5]dec-8-yl)carbonyl]-1-piperidinyl]phenyl]-4-(2-methyl-4-pyridinyl)-1H-imidazole-2-carboxamide] | 251 to 1000 nM | 
18 | Cc1cc(-c2c[nH]c(C(=O)Nc3cccc(F)c3N3CCC(C(=O)N4CCC5(CC4)CNC5)CC3)n2)ccn1 [Compound 94, N-[2-[4-(2,7-diazaspiro[3.5]noN-7-ylcarbonyl)-1-piperidinyl]-3-fluorophenyl]-4-(2-methyl-4-pyridinyl)-1H-imidazole-2-carboxamide] | 51 to 250 nM | 
19 | Cc1cc(-c2c[nH]c(C(=O)Nc3cccc(F)c3N3CCC(C(=O)N4CCOC(C(C)N)C4)CC3)n2)ccn1 (stereo not drawn) [Compound 95, N-[2-[4-[[2-(1-aminoethyl)-4-morpholinyl]carbonyl]-1-piperidinyl]-3-fluorophenyl]-4-(2-methyl-4-pyridinyl)-1H-imidazole-2-carboxamide] | 251 to 1000 nM | 
20 | Cc1cc(-c2c[nH]c(C(=O)Nc3cccc(F)c3N3CCC(C(=O)N4CCC(O)(c5ccccn5)CC4)CC3)n2)ccn1 [Compound 96, N-[3-fluoro-2-[4-[[4-hydroxy-4-(2-pyridinyl)-1-piperidinyl]carbonyl]-1-piperidinyl]phenyl]-4-(2-methyl-4-pyridinyl)-1H-imidazole-2-carboxamide] | 1000 to 5000 nM | 
21 | NCC1CCN(c2c(F)cccc2NC(=O)c2nc(-c3ccc(=O)n(C(F)F)c3)c[nH]2)CC1 [Compound 97, N-(2-(4-(aminomethyl)piperidin-1-yl)-3-fluorophenyl)-4-(1-(difluoromethyl)-6-oxo-1,6-dihydropyridin-3-yl)-1H-imidazole-2-carboxamide] |  | 51 to 250 nM
22 | Cc1cc(-c2c[nH]c(C(=O)Nc3cccc(F)c3N3CCC[C@@H](N)C3)n2)cc(Cl)n1 [Compound 98, (R)—N-(2-(3-aminopiperidin-1-yl)-3-fluorophenyl)-4-(2-chloro-6-methylpyridin-4-yl)-1H-imidazole-2-carboxamide] |  | 251 to 1000 nM
23 | NCC1CCN(c2c(F)cccc2NC(=O)c2nc(-c3cc(N4CCOCC4)nc(N)n3)c[nH]2)CC1 [Compound 99, 4-(2-amino-6-morpholinopyrimidin-4-yl)-N-(2-(4-(aminomethyl)piperidin-1-yl)-3-fluorophenyl)-1H-imidazole-2-carboxamide] |  | 1 to 50 nM
24 | CNc1nc(-c2c[nH]c(C(=O)Nc3cccc(F)c3N3CCC(CN)CC3)n2)cc(N2CCN(C(=O)OC)CC2)n1 [Compound 100, methyl 4-(6-(2-(2-(4-(aminomethyl)piperidin-1-yl)-3-fluorophenylcarbamoyl)-1H-imidazol-4-yl)-2-(methylamino)pyrimidin-4-yl)piperazine-1-carboxylate] |  | 1 to 50 nM
25 | CNc1nc(-c2c[nH]c(C(=O)Nc3cccc(F)c3N3CCC(CN)CC3)n2)cc(N2CCN(C(C)=O)CC2)n1 [Compound 101, 4-(6-(4-acetylpiperazin-1-yl)-2-(methylamino)pyrimidin-4-yl)-N-(2-(4-(aminomethyl)piperidin-1-yl)-3-fluorophenyl)-1H-imidazole-2-carboxamide] |  | 1 to 50 nM
26 | CNc1nc(-c2c[nH]c(C(=O)Nc3ccccc3N3CCNCC3)n2)cc(N2CCN(C(C)=O)CC2)n1 [Compound 103, 4-(6-(4-acetylpiperazin-1-yl)-2-(methylamino)pyrimidin-4-yl)-N-(2-(piperazin-1-yl)phenyl)-1H-imidazole-2-carboxamide] |  | 51 to 250 nM
27 | CNc1nc(-c2c[nH]c(C(=O)Nc3ccccc3N3CCNCC3)n2)cc(N2CCN(C(=O)OCc3ccccc3)CC2)n1 [Compound 105, benzyl 4-(2-(methylamino)-6-(2-(2-(piperazin-1-yl)phenylcarbamoyl)-1H-imidazol-4-yl)pyrimidin-4-yl)piperazine-1-carboxylate] |  | 1000 to 5000 nM
